Drawing on patent publication US10562893B2, “Benzimidazoles derivatives as Tec kinases family inhibitors” (GB005, Inc., priority 2015, dated 2020), this text covers EC50 for 15 compounds.

One test has as its target RLK/TXK (Homo sapiens (Human), UniProt P42681). The test is described as follows: RLK/TXK kinase inhibition assay. It counts as biochemical. The conditions noted are these: micro-fluidic detection, 3 hours at 25° C. The method, then:
(§1) The in vitro kinase assays were performed at Nanosyn utilizing micro-fluidic detection technology. The test compounds were serially pre-diluted in DMSO and added, by the acoustic dispensing (Labcyte® 550), directly to 384well assay plates into 10 uL of a buffer with enzyme comprising: 100 mM HEPES, pH7.5, 5 mM MgCl2, 0.1% bovine serum albumin, 1 mM DTT, 0.01% Triton X-100 and the enzyme. Final DMSO concentration was maintained at 1% in all samples, including the controls. The reactions were initiated by addition of ATP (to the specified concentration) and the fluorescently labeled peptide substrate to a final concentration of 1 uM, and incubated for 3 hours at 25° C. Following incubation, the reactions were quenched by addition of 40 μL of termination buffer (100 mM HEPES, pH7.5, 0.01% Triton X-100, 50 mM EDTA). Terminated plates were analyzed using Caliper LabChip® 3000 microfluidic electrophoresis instrument (Caliper Life Sciences/Perkin Elmer). The enzymatic modification of the peptide substrate (phosphorylation) results in a change of net charge enabling electrophoretic separation of product from substrate. As substrate and product are separated by electrophoresis, two peaks of fluorescence are observed. Change in the relative fluorescence intensity of the substrate and product peaks was the parameter measured, reflecting enzyme activity. In the presence of inhibitor, the ratio between product and substrate is altered: signal of the product decreases, while the signal of the substrate increases. Activity in each test sample was determined as the product to sum ratio (PSR): P/(S+P), where P is the peak height of the product and S is the peak height of the […]. For each compound, enzyme activity was measured at 12 concentrations spaced by 3× dilution intervals. Negative control samples (0%-inhibition in the absence of inhibitor, DMSO only) and positive control samples (100%-inhibition, in the absence of enzyme or in the presence of control inhibitor) were assembled in replicates of four and were used to calculate %-inhibition values in the presence of compounds. Percent inhibition (Pinh) was determined using the following equation: Pinh=(PSR0%−PSRinh)/(PSR0%−PSR100%)*100, where PSRinh is the product sum ratio in the presence of inhibitor, PSR0% is the product sum ratio in the absence of inhibitor and PSR100% is the product sum ratio in 100%-inhibition control samples. To determine IC50 values, the inhibition curves (Pinh versus inhibitor concentration) were fitted by 4 parameter sigmoid dose-response model using XLfit software (IDBS).

Another test addresses ITK (Homo sapiens (Human), UniProt Q08881). The test is described as follows: ITK kinase inhibition assay. It counts as biochemical. The conditions noted are these: micro-fluidic detection, 3 hours at 25° C. The method, then: as §1, with “384 well” for “384well”, “(PSR):P/(S+P),” for “(PSR): P/(S+P),”
The next test has as its system Human PBMCs. The test is described as follows: CD3/CD28 mediated PBMC proliferation assay. The format is cell-based. The conditions noted are these: proliferation of human PBMCs stimulated with anti-CD3 and anti-CD28, 72 hours, Cell Titer-Glo. The method, then: Inhibition of cellular ITK was assessed by measuring proliferation of PBMCs following stimulation with anti-CD3 and anti-CD28 antibodies. Individual wells of 96 well tissue culture plates were coated with 50 μL of 5 μg/mL anti-CD3 (OKT3, eBiosciences) for 2 hours at 37° C. Human PBMCs (Stemcell Technologies catalog #70025.3) were plated in 96-well plates at a final concentration of 9.2×10e5 cells/mL in complete media (RPMI, 10% heat inactivated FBS, 55 uM β-mercaptoethanol) and pre-treated with compound curves for 30 minutes at 37° C., 5% CO2. Pre-treated cells plus compounds were transferred to washed anti-CD3 coated plates. Soluble anti-CD28 (CD28.2 eBiosciences) was added to each well at a final concentration of 2 μg/mL. The cells were placed in a humidified 37° C. incubator with 5% CO2 for 72 hours and metabolic viability was measured by quantification of ATP levels with Cell Titer-Glo (Promega catalog # G9242). Controls included unstimulated cells and vehicle alone. EC50 values (50% proliferation in the presence of compound as compared to vehicle treated controls) were calculated from dose response compound curves using GraphPad Prism Software.

In test [1] the test system is Jurkat human acute T cell leukemia cells. The test is described as follows: Jurkat IL-2 release assay. The format is cell-based. The conditions noted are these: IL-2 release from Jurkat cells stimulated with anti-CD3 and anti-CD28, 48 hours, ELISA. The method, then:
Inhibition of cellular ITK was assessed by measuring release of IL-2 following stimulation with anti-CD3 and anti-CD28 antibodies. Individual wells of 96 well tissue culture plates were coated with 50 μL of 10 μg/mL anti-CD3 (OKT3, eBiosciences) for 2 hours at 37° C. Jurkat human acute T cell leukemia cells (ATCC) were plated in 96-well plates at a final concentration of 9.2×10e5 cells/mL in complete media (RPMI, 10% FBS, 1.5 g/L sodium bicarbonate, 10 mM Hepes, 1 mM sodium pyruvate, 4.5 g/L glucose) and pre-treated with compound curves for 30 minutes at 37° C., 5% CO2. Pre-treated cells plus compounds were transferred to washed anti-CD3 coated plates. Soluble anti-CD28 (CD28.2 eBiosciences) was added to each well at a final concentration of 1 μg/mL. The cells were placed in a humidified 37° C. incubator with 5% CO2 for 48 hours and IL-2 release was measured using a commercial ELISA (BD Bioscience catalog #555190). Controls included unstimulated cells and vehicle alone. EC50 values (50% IL-2 release in the presence of compound as compared to vehicle treated controls) were calculated from dose response compound curves using GraphPad Prism Software.

RLK/TXK, sequence (P42681 whole entry): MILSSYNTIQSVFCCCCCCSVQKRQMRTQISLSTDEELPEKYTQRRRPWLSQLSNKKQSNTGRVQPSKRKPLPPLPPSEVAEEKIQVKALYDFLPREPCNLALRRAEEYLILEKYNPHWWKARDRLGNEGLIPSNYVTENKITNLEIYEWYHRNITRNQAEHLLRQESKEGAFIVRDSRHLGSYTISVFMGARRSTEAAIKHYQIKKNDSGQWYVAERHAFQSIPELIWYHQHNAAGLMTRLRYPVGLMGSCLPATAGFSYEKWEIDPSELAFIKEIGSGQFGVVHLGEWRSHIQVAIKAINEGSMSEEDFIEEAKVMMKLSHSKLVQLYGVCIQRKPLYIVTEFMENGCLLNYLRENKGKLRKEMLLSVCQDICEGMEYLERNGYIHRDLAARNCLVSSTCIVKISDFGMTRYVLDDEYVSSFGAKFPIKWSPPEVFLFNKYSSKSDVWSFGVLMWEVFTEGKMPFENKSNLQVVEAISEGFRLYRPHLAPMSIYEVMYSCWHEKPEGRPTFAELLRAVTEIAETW
ITK, sequence (Q08881 whole entry): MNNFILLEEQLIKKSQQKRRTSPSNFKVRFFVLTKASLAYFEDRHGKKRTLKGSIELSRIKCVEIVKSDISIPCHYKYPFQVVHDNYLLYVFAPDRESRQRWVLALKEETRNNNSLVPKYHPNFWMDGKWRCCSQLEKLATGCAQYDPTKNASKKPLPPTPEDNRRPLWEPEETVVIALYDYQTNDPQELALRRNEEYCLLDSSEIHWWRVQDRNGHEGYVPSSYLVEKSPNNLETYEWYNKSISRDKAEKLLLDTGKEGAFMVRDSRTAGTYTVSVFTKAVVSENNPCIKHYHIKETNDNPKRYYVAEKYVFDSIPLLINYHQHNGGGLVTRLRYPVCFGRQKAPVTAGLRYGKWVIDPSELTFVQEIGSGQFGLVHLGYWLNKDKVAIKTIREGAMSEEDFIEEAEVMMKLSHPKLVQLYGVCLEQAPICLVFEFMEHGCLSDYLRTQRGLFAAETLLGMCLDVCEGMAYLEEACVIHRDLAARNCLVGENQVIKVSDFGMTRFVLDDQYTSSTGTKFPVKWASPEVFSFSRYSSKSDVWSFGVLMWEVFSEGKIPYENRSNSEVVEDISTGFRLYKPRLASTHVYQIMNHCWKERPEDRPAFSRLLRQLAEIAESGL

Turning to `C=CC(=O)N[C@H]1CC[C@@H](n2c(NC(=O)c3ccc(C(F)F)s3)nc3cc(CN[C@@H](C)C(C)(C)C)ccc32)CC1` [Compound 3], the 50% effective concentration (EC50) is 10 to 100 nM on RLK/TXK, 10 to 100 nM on ITK, > 100 nM with Human PBMCs and 10 to 100 nM in test [1].
Turning to `C=CC(=O)Nc1cccc(-n2c(NC(=O)c3ccc(C#N)cc3)nc3cc(CN[C@@H](C)C(C)(C)C)ccc32)c1` [Compound 11], the EC50 on RLK/TXK was < 10 nM; on ITK, < 10 nM; in the test on Human PBMCs it was 10 to 100 nM; in test [1] it was > 100 nM.
In the case of `C=CC(=O)Nc1cccc(-n2c(NC(=O)c3nccs3)nc3cc(CN[C@@H](C)C(C)(C)C)ccc32)c1` [Compound 12], the EC50 at RLK/TXK was 10 to 100 nM; at ITK, > 100 nM; in the test on Human PBMCs, > 100 nM; in test [1] it was > 100 nM.
Take `C=CC(=O)Nc1cccc(-n2c(NC(=O)c3ccncc3)nc3cc(CN[C@@H](C)C(C)(C)C)ccc32)c1` [Compound 16]: the EC50 at RLK/TXK is < 10 nM; at ITK, < 10 nM; in the test on Human PBMCs, 10 to 100 nM; in test [1], 10 to 100 nM.
Regarding `C=CC(=O)Nc1cccc(-n2c(NC(=O)c3cncs3)nc3cc(CN[C@@H](C)C(C)(C)C)ccc32)c1` [Compound 17], the EC50 at RLK/TXK was < 10 nM; on ITK, 10 to 100 nM; in the test on Human PBMCs, 10 to 100 nM; in test [1] it was 10 to 100 nM.
For the compound `C=CC(=O)N[C@@H]1CC[C@H](n2c(NC(=O)c3ccc(C(F)F)s3)nc3cc(CN[C@@H](C)C(C)(C)C)ccc32)C1` [Compound 18], the EC50 was < 10 nM at RLK/TXK, < 10 nM at ITK, 10 to 100 nM with Human PBMCs and < 10 nM in test [1].
On to `C=CC(=O)Nc1cccc(-n2c(NC(=O)c3cccnc3)nc3cc(CN[C@@H](C)C(C)(C)C)ccc32)c1` [Compound 19], for which the concentration giving a half-maximal response (EC50) was 10 to 100 nM on RLK/TXK, < 10 nM on ITK, 10 to 100 nM with Human PBMCs and < 10 nM in test [1].
Consider `C=CC(=O)Nc1cccc(-n2c(NC(=O)c3ccccn3)nc3cc(CN[C@@H](C)C(C)(C)C)ccc32)c1` [Compound 27], for which the EC50 (at RLK/TXK; on ITK; in the test on Human PBMCs; in test [1]) was > 100 nM in each case.
With `C=CC(=O)Nc1cccc(-n2c(NC(=O)c3ccc(C(F)F)s3)nc3cc(CN[C@H]4CC[C@H](O)CC4)ccc32)c1` [Compound 31], the EC50 (at RLK/TXK; on ITK; with Human PBMCs; in test [1]) was < 10 nM each time.
As to `C=CC(=O)Nc1cccc(-n2c(NC(=O)c3cnco3)nc3cc(CN[C@@H](C)C(C)(C)C)ccc32)c1` [Compound 42], the EC50 at RLK/TXK is 10 to 100 nM; at ITK, 10 to 100 nM; in the test on Human PBMCs, 10 to 100 nM; in test [1] it was < 10 nM.
Turning to `C=CC(=O)Nc1cccc(-n2c(NC(=O)c3ccns3)nc3cc(CN[C@@H](C)C(C)(C)C)ccc32)c1` [Compound 43], the EC50 (on RLK/TXK; on ITK; with Human PBMCs; in test [1]) was < 10 nM in each case.
Take `C=CC(=O)Nc1cccc(-n2c(NC(=O)c3ccc(C(F)F)s3)nc3cc(CN4CCOCC4)ccc32)c1` [Compound 50]: the concentration for a half-maximal effect (EC50) (at RLK/TXK; on ITK; with Human PBMCs; in test [1]) was < 10 nM in each case.
Regarding `C=CC(=O)N[C@H]1CC[C@@H](n2c(NC(=O)c3ccc(C(F)F)s3)nc3cc(CN[C@@H](C)C(C)(C)C)ccc32)C1` [Compound 62], the EC50 on RLK/TXK was 10 to 100 nM; at ITK it was < 10 nM; in the test with Human PBMCs, > 100 nM; in test [1], 10 to 100 nM.
For the compound `C=CC(=O)Nc1cccc(-n2c(NC(=O)c3ccc(C(F)F)s3)nc3cc(N(C)C(=O)[C@H](C)N4CCOCC4)ccc32)c1` [Compound 77], the EC50 was < 10 nM on RLK/TXK, < 10 nM on ITK, 10 to 100 nM in the test on Human PBMCs and < 10 nM in test [1].
Consider `C=CC(=O)N[C@@H]1CCC[C@H](n2c(NC(=O)c3ccc(C(F)F)s3)nc3cc(CN[C@@H](C)C(C)(C)C)ccc32)C1` [Compound 81], for which the EC50 on RLK/TXK is 10 to 100 nM; at ITK, < 10 nM; with Human PBMCs it was 10 to 100 nM; in test [1] it was < 10 nM.
